Structures can show the parent of a compound that is named as a salt.
Test system: MMP-13
Assay: MMP-13 Production Inhibition Test
Type: cell-based, human
Settings: Homo sapiens; 30 μmol/L; SW1353 cells stimulated with IL-1β 10 ng/mL; MMP-13 in culture supernatant by ELISA 16 hours after stimulation; read-out: Inhibition rate (%) at 30 μmol/L
Experimental: MMP-13 Production Inhibition Test
6.8×10^3 human cartilage derived cell line SW1353 cells were suspended in 100 μL of Dulbecco modified Eagle's medium supplemented with 10% fetal calf serum, plated on 96-well plates and cultured for 3 days. After the culture medium was changed to Dulbecco modified Eagle's medium containing 0.2% lactalbumin hydrolysate and the cells were cultured for 6 hours, […] were added and then IL-1β was added to obtain the final concentration of 10 ng/mL 1 hour later. 16 hours after the stimulation, supernatant was collected and the amount of MMP-13 in the culture supernatant was determined with an ELISA kit (Amersham). The inhibition rate was calculated from the amount of MMP-13 in the presence of a test compound assuming that the amount of MMP-13 was 100% in the absence of the test compound.

Row | Compound | inhibition at 30 µM
1 | O=C(Nc1cc(-c2c(F)cccc2Cl)ccc1C(=O)O)c1ccccc1 [Example 251, 2-(benzamido)-4-(2-chloro-6-fluorophenyl)benzoic acid] | 83%
2 | O=C(O)c1ccc(CCc2ccccc2)cc1NC(=O)c1ccccc1C(F)(F)F [Example 255, 4-Phenethyl-2-(2-(trifluoromethyl)benzamido)benzoic acid] | 91%
3 | Cc1ccc(C(=O)Nc2cc(CCc3ccccc3)ccc2C(=O)O)cc1C [Example 261, 2-(3,4-Dimethylbenzamido)-4-phenethylbenzoic acid] | 94%
4 | Cc1cccc(C(=O)Nc2cc(CCc3ccccc3)ccc2C(=O)O)c1C [Example 262, 2-(2,3-Dimethylbenzamido)-4-phenethylbenzoic acid] | 93%
5 | O=C(Nc1cc(CCc2ccccc2)ccc1C(=O)O)c1ccc(C(F)(F)F)cc1 [Example 264, 4-Phenethyl-2-(4-(trifluoromethyl)benzamido)benzoic acid] | 94%
6 | O=C(Nc1cc(CCc2ccccc2)ccc1C(=O)O)c1cncc(-n2cccc2)c1 [Example 276, 4-Phenethyl-2-(5-(1H-pyrrol-1-yl)pyridine-3-carboxamido)benzoic acid] | 86%
7 | O=C(Nc1cc(-c2ccccc2)ccc1C(=O)O)c1ccccc1F [Example 282] | 75%
8 | O=C(Nc1cc(-c2ccccc2)ccc1C(=O)O)c1cccs1 [Example 301, 4-Phenyl-2-(thiophene-2-carboxamido)benzoic acid] | 80%
9 | O=C(Nc1cc(-c2ccccc2)ccc1C(=O)O)c1ccc(Cl)cc1 [Example 316, 2-(4-Chlorobenzamido)-4-phenylbenzoic acid] | 96%
10 | O=C(O)c1ccc(-c2ccccc2)cc1NC(=O)c1ccc(C(F)(F)F)cc1C(F)(F)F [Example 318, 4-Phenyl-2-(2,4-bis(trifluoromethyl)benzamido)benzoic acid] | 95%
11 | Cc1cccc(C(=O)Nc2cc(Oc3ccccc3)ccc2C(=O)O)c1 [Example 325, 2-(3-Methylbenzamido)-4-phenoxybenzoic acid] | 91%
12 | O=C(Nc1cc(Oc2ccccc2)ccc1C(=O)O)c1ccc(N2CCOCC2)nc1 [Example 330, 2-(6-Morpholinopyridine-3-carboxamido)-4-phenoxybenzoic acid] | 68%
13 | O=C(Nc1cc(-c2ccccc2)ccc1C(=O)O)c1cc(-c2ccccc2)ncn1 [Example 349, 4-Phenyl-2-(6-phenylpyrimidine-4-carboxamido)benzoic acid] | 95%
14 | O=C(/C=C/c1cccc(Cl)c1)Nc1cc(-c2ccccc2)ccc1C(=O)O [Example 358, 2-((E)-3-(3-Chlorophenyl)acrylamido)-4-phenylbenzoic acid] | 99%
15 | O=C(/C=C/c1ccc(Cl)c(Cl)c1)Nc1cc(Oc2ccccc2)ccc1C(=O)O [Example 382, 2-((E)-3-(3,4-Dichlorophenyl)acrylamido)-4-phenoxybenzoic acid] | 98%
16 | O=C(Nc1cc(-c2ccccc2)ccc1C(=O)O)c1ccc(O)cc1 [Example 399, 2-(4-Hydroxybenzamido)-4-phenylbenzoic acid] | 79%
17 | COc1ccc(-c2ccc(C(=O)O)c(NC(=O)c3ccccc3)c2)cc1OC [Example 411, 2-(Benzamido)-4-(3,4-dimethoxyphenyl)benzoic acid] | 81%
18 | O=C(Nc1cc(-n2cnc3ccccc32)ccc1C(=O)O)c1ccccc1 [Example 415, 2-(benzamido)-4-(1H-benzimidazol-1-yl)benzoic acid hydrochloride] | 97%
19 | COc1ccc(-c2ccc(C(=O)O)c(NC(=O)c3ccccc3)c2)cc1Cl [Example 423, 2-(Benzamido)-4-(3-chloro-4-methoxyphenyl)benzoic acid] | 98%
20 | O=C(Nc1cc(-c2cc(Cl)ccc2Cl)ccc1C(=O)O)c1ccccc1 [Example 425, 2-(Benzamido)-4-(2,5-dichlorophenyl)benzoic acid] | 99%
21 | Cc1ccc(-c2ccc(C(=O)O)c(NC(=O)c3ccccc3)c2)cc1Cl [Example 426, 2-(benzamido)-4-(3-chloro-4-methylphenyl)benzoic acid] | 98%

Row | Compound | inhibition at 30 µM
22 | O=C(Nc1cc(CCc2ccccc2)ccc1C(=O)O)c1ccc(Cl)c(Cl)c1 [Example 431, 2-(3,4-Dichlorobenzamido)-4-phenethylbenzoic acid] | 98%
23 | O=C(Nc1cc(CCc2ccccc2)ccc1C(=O)O)c1ccc(F)c(F)c1 [Example 433, 2-(3,4-Difluorobenzamido)-4-phenethylbenzoic acid] | 98%
24 | O=C(Nc1cc(Oc2ccccc2)ccc1C(=O)O)c1ccc(Cl)c(Cl)c1 [Example 442, 2-(3,4-Dichlorobenzamido)-4-phenoxybenzoic acid] | 99%
25 | O=C(Nc1cc(-c2ccccc2)ccc1C(=O)O)c1ccc(F)c(F)c1 [Example 450, 2-(3,4-Difluorobenzamido)-4-phenylbenzoic acid] | 98%
26 | O=C(CCCc1ccccc1)Nc1cc(Oc2ccccc2)ccc1C(=O)O [Example 467, 4-phenoxy-2-(4-phenylbutanamido)benzoic acid] | 90%
27 | O=C(Nc1cc(Oc2ccccc2)ccc1C(=O)O)c1ccc(-n2cccc2)cc1 [Example 495, 4-phenoxy-2-(4-(1H-pyrrol-1-yl)benzamido)benzoic acid] | 99%
28 | O=C(Nc1cc(Oc2ccccc2)ccc1C(=O)O)c1ccc(-n2cccc2)nc1 [Example 499, 4-Phenoxy-2-(6-(1H-pyrrol-1-yl)pyridine-3-carboxamido)benzoic acid] | 99%
29 | O=C(Nc1cc(Oc2ccccc2)ccc1C(=O)O)c1cccc(-c2ccccc2)c1 [Example 503, 2-(Biphenyl-3-carboxamido)-4-phenoxybenzoic acid] | 99%
30 | CC(=O)c1cccc(C(=O)Nc2cc(Oc3ccccc3)ccc2C(=O)O)c1 [Example 505, 2-(3-Acetylbenzamido)-4-phenoxybenzoic acid] | 82%
31 | O=C(Nc1cc(-c2ccccc2)ccc1C(=O)O)c1ccc(-n2cccc2)nc1 [Example 509, 4-Phenyl-2-(6-(1H-pyrrol-1-yl)pyridine-3-carboxamido) benzoic acid] | 77%
32 | O=C(Nc1cc(-c2ccccc2)ccc1C(=O)O)c1cccc(-c2ccccc2)c1 [Example 512, 2-(Biphenyl-3-carboxamido)-4-phenylbenzoic acid] | 99%
33 | CC(=O)c1cccc(C(=O)Nc2cc(-c3ccccc3)ccc2C(=O)O)c1 [Example 514, 2-(3-Acetylbenzamido)-4-phenylbenzoic acid] | 91%
34 | O=C(Nc1cc(CCc2ccccc2)ccc1C(=O)O)c1ccc(N2CCCCC2)nc1 [Example 525, 4-phenethyl-2-(6-(piperidin-1-yl)pyridine-3-carboxamido)benzoic acid] | 87%
35 | O=C(Nc1cc(Oc2cc(F)cc(F)c2)ccc1C(=O)O)c1ccccc1 [Example 539, 2-(benzamido)-4-(3,5-difluorophenoxy)benzoic acid] | 97%
36 | Cc1cccc(Oc2ccc(C(=O)O)c(NC(=O)c3ccccc3)c2)c1C [Example 541, 2-(Benzamido)-4-(2,3-dimethylphenoxy)benzoic acid] | 97%
37 | COc1cccc(Oc2ccc(C(=O)O)c(NC(=O)c3ccccc3)c2)c1 [Example 543, 2-(Benzamido)-4-(3-methoxyphenoxy)benzoic acid] | 85%
38 | O=C(Nc1cc(Oc2cccc(Cl)c2)ccc1C(=O)O)c1ccccc1 [Example 551, 2-(benzamido)-4-(3-chlorophenoxy)benzoic acid] | 86%
39 | O=C(Nc1cc(Oc2ccc(F)cc2)ccc1C(=O)O)c1ccccc1 [Example 560, 2-(Benzamido)-4-(4-fluorophenoxy)benzoic acid] | 85%
40 | Cc1cccc(C)c1Oc1ccc(C(=O)O)c(NC(=O)c2ccccc2)c1 [Example 564, 2-(Benzamido)-4-(2,6-dimethylphenoxy)benzoic acid] | 97%
41 | O=C(Nc1cc(Oc2ccc(C(F)(F)F)cc2)ccc1C(=O)O)c1ccccc1 [Example 570, 2-(Benzamido)-4-(4-(trifluoromethyl)phenoxy)benzoic acid] | 98%
